The text below walks through data of ChEMBL document CHEMBL5512652, “Mono-quinoxaline-induced DNA structural alteration leads to ZBP1/RIP3/MLKL-driven necroptosis in cancer cells” (Eur J Med Chem, 2024).

For assay [1], the system named is HeLa. Description: Inhibition of colony formation in human HeLa cells at 5 uM incubated for 10 days by crystal violet staining based assay. It counts as functional, cell-based. The settings on record: time 10.0 day.
Assay [2] relates to GC rich DNA. Kind of assay: Binding affinity to DNA (GC)6 (unknown origin). It counts as nucleic-acid assay.
Assay [3] concerns GC rich DNA. Kind of assay: Binding affinity to poly GC DNA (unknown origin) by circular dichroism method. It counts as nucleic-acid assay. (CD spectra are sensitive to the conformation of chiral molecules.)
Assay [4] can be described thus: Effect on DNA/Nucleosome complex (unknown origin) assessed as induction histone eviction by measuring reduction in band intensity at 150 uM incubated for 4 hrs by EtBr staining based assay. Details: scale not given: the % may be the effect or the level left.
Assay [5] concerns HT-29. Kind of assay: Induction of DNA damage in human HT-29 cells assessed as increase in gammaH2AX expression at 3 to 6 uM incubated for 24 hrs by immunoblotting analysis. It counts as functional, cell-based. The settings on record: dose 3-6 µM. A general note: Immunoblotting shows a protein as a band on a membrane.
For assay [6], the system named is HeLa. Kind of assay: Induction of apoptosis in human HeLa cells assessed as viable cells at 2 uM incubated for 24 hrs by FITC/Annexin V based FACS analysis (reference value: 91%). It counts as functional. The settings on record: read-out: Activity. In general terms: A flow cytometer gives signals particle by particle.
For assay [7], the system named is HeLa. Description: Induction of apoptosis in human HeLa cells assessed as early apoptotic cells at 2 uM incubated for 24 hrs by FITC/Annexin V based FACS analysis (reference value: 2.7%). It counts as functional.
Assay [8] concerns HCT-116. Description: Induction of apoptosis in human HCT-116 cells assessed as viable cells at 1 uM incubated for 24 hrs by FITC/Annexin V based FACS analysis (reference value: 87.1%). The settings on record: read-out: Activity. It counts as functional.
Assay [9] has as its system HCT-116. Description: Induction of apoptosis in human HCT-116 cells assessed as early apoptotic cells at 2 uM incubated for 24 hrs by FITC/Annexin V based FACS analysis (reference value: 5.07%). It counts as functional.
For assay [10], the system named is HT-29. Description: Induction of apoptosis in human HT-29 cells assessed as necrotic cells at 3 uM incubated for 24 hrs by FITC/Annexin V based FACS analysis (reference value: 4.9%). It counts as functional.
Assay [11] concerns HeLa. Description: Induction of mitochondrial depolarization in human HeLa cells incubated for 24 hrs by JC-1 staining based confocal microscopy imaging method. It counts as functional, cell-based.
The test system of assay [12] is HT-29. Description: Induction of cell death in human HT-29 cells assessed as increase in ZBP1 expression at 6 uM incubated for 24 hrs by immunoblotting analysis. It counts as functional, cell-based.

Calls of active or inactive are those of the source. The calls are words filed in the database; no cut-off is given here.

Regarding `CN(C)CCCNc1nc2cc([N+](=O)[O-])ccc2nc1NCc1ccc(-c2ccccc2)cc1`, the inhibition result in assay [1] was “Active”. Further, the outcome in assay [2], in [3], in assay [5], in [11] and in [12] was Active. Also, the Activity in [4] worked out at 100%; in assay [7] it was 10.2%; in [9], 5.36%; in assay [10], 5.7%. Also, in [6], the viability at 2 µM stood at 74.1%. For the same compound, the viability at 1 µM in [8] was 71.2%.
